The record followed here is US10639295B2 (priority 2016, dated 2020).

Like-named read-outs stand apart in the source and are kept apart here.

The subject of one data set is mouse melanoma B16 cells. It counts as in vivo, C57BL/6 mice. Particulars: intravenous injection, equimolar to 5.00 mg/kg 4′-demethylepipodophyllotoxin; for curative effect on lung metastatic tumor: 22nd day after modeling; for tumor-bearing lung weight / number of lung metastasis tumor nodules: sacrificed on the 22nd day; for tumor-bearing lung weight: compared with control group (FIG. 3); for number of lung metastasis tumor nodules: compared with control group (FIG. 4). The protocol:
The experiment was performed according to the method reported by Small, 2014(3):524-535. C57BL/6 mice (male, 20±2 g, 6 to 8 week-old) were used and intravenously injected with mouse melanoma B16 cells in logarithmic growth phase. 5×10^5 cells were injected into each mouse to establish a melanoma lung metastasis model, and the mice were randomly divided into 5 groups (recorded as the 0th day). The injections for intravenous injecting used in the experiment were prepared according to Example 6. On the 4th, 7th and 13th day after the modeling, each group was subjected to intravenous injection for […]. 4′-demethylepipodophyllotoxin was provided at a dosage of 5.00 mg/kg, and etoposide, compound DC and compound DP were provided at equimolar amount with 4′-demethylepipodophyllotoxin, and the administration dosages were etoposide 7.36 mg/kg, compound DC 7.89 mg/kg, and compound DP 7.69 mg/kg, respectively. The control group was administered with equal amount of solvent. All mice were housed normally and sacrificed on the 22nd day after modeling. The lung tissue was immediately separated out, washed with physiological saline and weighed, and the number of tumor nodules was calculated.

For data set [1] the following is noted: for concentration in the lung compared with 4′-demethylepipodophyllotoxin original drug group and etoposide control group: 5 minutes after administration by tail intravenous injection (FIG. 1); for time for which a relatively high drug concentration in the lung lasted (retention time in the lung): after tail intravenous injection; for drug concentration in the lung compared with 4′-demethylepipodophyllotoxin original drug group and etoposide control group: at each time point after tail intravenous injection (FIG. 2); for lung relative uptake rate Re (AUC0-t,lung compound / AUC0-t,lung drug) / peak concentration ratio Ce in the lung (Cmax,lung compound / Cmax,lung drug): versus 4′-demethylepipodophyllotoxin original drug group; for lung relative uptake rate Re (AUC0-t,lung compound / AUC0-t,lung drug) / peak concentration ratio Ce in the lung (Cmax,lung compound / Cmax,lung drug) / lung relative uptake rate Re (AUC0-t,lung compound / AUC0-t,lung control) / peak concentration ratio Ce in the lung (Cmax,lung compound / Cmax,lung control): tail intravenous injection; for lung relative uptake rate Re (AUC0-t,lung compound / AUC0-t,lung drug) / lung relative uptake rate Re (AUC0-t,lung compound / AUC0-t,lung control) / peak concentration ratio Ce in the lung (Cmax,lung compound / Cmax,lung control): equimolar doses; for peak concentration ratio Ce in the lung (Cmax,lung compound / Cmax,lung drug): equimolar to 10.00 mg/kg 4′-demethylepipodophyllotoxin; for lung relative uptake rate Re (AUC0-t,lung compound / AUC0-t,lung control) / peak concentration ratio Ce in the lung (Cmax,lung compound / Cmax,lung control): versus etoposide control group. On the procedure:
16 mg of 4′-demethylepipodophyllotoxin was accurately weighed, 5% DMSO, 20% polyethylene glycol 400 and 20% absolute ethanol were added to help dissolution, so as to prepare an injection for intravenous injection with a concentration of 2 mg/mL. 28 mg of etoposide was accurately weighed, and 5% DMSO, 20% polyethylene glycol 400 and 20% absolute ethanol were added to help dissolution, so as to prepare an injection for intravenous injection with a concentration of 3.5 mg/mL. 30.40 mg of compound DC or DP was accurately weighed, and 5% DMSO, 20% polyethylene glycol 400 and 20% absolute ethanol were added to help dissolution, so as to prepare an injection for intravenous injection with a concentration of 3.8 mg/mL.
200 Kunming mice (male, 20±2 g) were used, which were fasted for 12 h before the experiment and given free access to water. In the experiment, they were randomly divided into 4 groups and administered by tail intravenous injection. The administration of 4′-demethylepipodophyllotoxin was carried out with a dosage of 10.00 mg/kg. Etoposide, compound DC and compound DP were administered in equimolar amount as 4′-demethylepipodophyllotoxin, and the administration dosages were etoposide 14.71 mg/kg, compound DC 15.78 mg/kg, and compound DP 15.38 mg/kg, respectively. 5 minutes, 15 minutes, 30 minutes, 1 hour, 2 hours, 4 hours, 8 hours, 12 hours, 24 hours and 48 hours after administration, the blood was collected and the mice sacrificed in all groups. The whole blood was put into sodium heparin-containing EP tubes, centrifuged at 5000 rpm at 4° C. for 5 min, and the upper plasma was collected and frozen at −40° C. for use. The hearts, livers, spleens, lungs, kidneys, brains and pancreas of the mice were immediately separated, and the residual blood was washed away with physiological saline. The remaining water on the surfaces of the organs was absorbed with filter papers. The organs were weighed and physiological saline 2 times the volume of the organs was added for homogenization.
0.1 mL of mouse plasma and 0.1 mL of tissue homogenate were taken and put into a 0.5 mL EP tube, 0.3 mL of methanol was added to all the samples as a protein precipitant. The sample was subjected to vortex vibration for 5 minutes, and then centrifuged at 13000 rpm at 4° C. for 10 min. The supernatant was taken and filtered with a 0.22 μm organic filtration membrane, and 1 μL of the sample was taken and subjected to LC-MS/MS analysis.
LC-MS/MS Analysis Condition
Liquid phase conditions: Agilent 1200 Series High Resolution Rapid LC System (RRLC); chromatographic column: Agilent Diamonsil ODS column (50 mm×4.6 mm, 1.8 μm); mobile phase: for 4′-demethylepipodophyllotoxin, methanol:0.1% formic acid aqueous solution=50:50, for etoposide, acetonitrile:0.1% formic acid aqueous solution=35:65, for compound DC, methanol:0.1% formic acid aqueous solution=[…], and for compound DP, methanol:0.1% formic acid aqueous solution=34:66; flow rate: 0.4 mL/min; column temperature: 30° C.; and injection volume: 1 μL.
Mass spectra conditions: Agilent Triple Quadrupole Mass Spectrometry (6410B); the analytes were subjected to a multiple reaction monitoring (MRM) in positive mode: for 4′-demethylepipodophyllotoxin, etoposide, compound DC and compound DP, fragmentation voltages were 97 V, 148 V, 190 V and 169 V, respectively; collision cell voltages were 20 V, 12 V, 52 V and 36 V, respectively; and ionic reactions (m/z) were 401.1→185, 589.2→229, 632.3→86.1 and 616.3→58.1, respectively; drying gas temperature: 350° C.; drying gas flow rate: 10 L/min; atomization air pressure: 30 psi; and the capillary voltage: 4000V.
Each pharmacokinetic parameters were calculated by DAS3.2.5 software, and the formula for calculating the targeting ability evaluation index, i.e., peak concentration ratio Ce and relative uptake rate Re, were shown hereinafter. Celung=(Cmax,lung)compound/(Cmax,lung)drug or control Relung=(AUC0-t,lung)compound/(AUC0-t,lung)drug or control

For the compound `COc1cc([C@@H]2c3cc4c(cc3[C@@H](O[C@@H]3O[C@@H]5CO[C@@H](C)O[C@H]5[C@H](O)[C@H]3O)[C@H]3COC(=O)[C@H]23)OCO4)cc(OC)c1O` [etoposide, reference compound], in the data set with mouse melanoma B16 cells, the “curative effect on lung metastatic tumor” value is listed as “improved the lung metastatic tumor to a certain degree”, the tumor-bearing lung weight entry is given as “reduced the tumor-bearing lung weight” and the “number of lung metastasis tumor nodules” value is “decreases the number of lung metastasis tumor nodules”. In addition, the “concentration in the lung” value in data set [1] (mouse, in vivo, iv, 14.71 mg/kg) was “below the detectable limit”.

As for `COc1cc(C2c3cc4c(cc3C(O)C3COC(=O)C23)OCO4)cc(OC)c1O` (stereo not shown) [4′-demethylepipodophyllotoxin, reference compound], in the data set on mouse melanoma B16 cells, the “curative effect on lung metastatic tumor” value is reported as “improved the lung metastatic tumor to a certain degree”, the tumor-bearing lung weight result was “reduced the tumor-bearing lung weight” and the “number of lung metastasis tumor nodules” value was “decreases the number of lung metastasis tumor nodules”. Moreover, the “concentration in the lung” value in data set [1] (one hour after the administration, tail intravenous injection 10.00 mg/kg) is reported as “below the detectable limit”.

For the compound `COc1cc([C@@H]2c3cc4c(cc3[C@@H](NC(=O)c3ccc(CN(C)CCCN(C)C)cc3)[C@H]3COC(=O)[C@H]23)OCO4)cc(OC)c1O` [compound DC], in the data set with mouse melanoma B16 cells, the “curative effect on lung metastatic tumor” value is listed as “best curative effects”, the tumor-bearing lung weight entry was “least” and the “number of lung metastasis tumor nodules” value was “least”. Also, in data set [1], the “concentration in the lung compared with 4′-demethylepipodophyllotoxin original drug group and etoposide control group” value is “much higher”; the “time for which a relatively high drug concentration in the lung lasted (retention time in the lung)” value is “up to 48 hours”; the “drug concentration in the lung compared with 4′-demethylepipodophyllotoxin original drug group and etoposide control group” value is reported as “much higher”; the “lung relative uptake rate Re (AUC0-t,lung compound / AUC0-t,lung drug)” value came out at 168.38 times. Moreover, in data set [1], the “peak concentration ratio Ce in the lung (Cmax,lung compound / Cmax,lung drug)” value is listed as 5.29 times, the “lung relative uptake rate Re (AUC0-t,lung compound / AUC0-t,lung control)” value was found to be 98.16 times and the “peak concentration ratio Ce in the lung (Cmax,lung compound / Cmax,lung control)” value is 4.54 times.

`COc1cc([C@@H]2c3cc4c(cc3[C@@H](NC(=O)c3ccc(CN5CCN(C)CC5)cc3)[C@H]3COC(=O)[C@H]23)OCO4)cc(OC)c1O` [compound DP]: in the data set on mouse melanoma B16 cells, the “curative effect on lung metastatic tumor” value is on record as “best curative effects”, the tumor-bearing lung weight result is reported as “least” and the “number of lung metastasis tumor nodules” value is “least”. Besides, in data set [1], the “concentration in the lung compared with 4′-demethylepipodophyllotoxin original drug group and etoposide control group” value is “much higher”; the “time for which a relatively high drug concentration in the lung lasted (retention time in the lung)” value was no more than 12 h; the “drug concentration in the lung compared with 4′-demethylepipodophyllotoxin original drug group and etoposide control group” value is given as “much higher”; the “lung relative uptake rate Re (AUC0-t,lung compound / AUC0-t,lung drug)” value was 42.56 times. Besides, in data set [1], the “peak concentration ratio Ce in the lung (Cmax,lung compound / Cmax,lung drug)” value was found to be 5.41 times, the “lung relative uptake rate Re (AUC0-t,lung compound / AUC0-t,lung control)” value worked out at 24.81 times and the “peak concentration ratio Ce in the lung (Cmax,lung compound / Cmax,lung control)” value is on record as 4.65 times.
